Experimental data taken from patent US9441018B2, “Gene from tidal flat metagenome and a novel protein displaying both phospholipase and lipase activities” (KOREA RESEARCH INSTITUTE OF BIOSCIENCE AND BIOTECHNOLOGY, priority 2011, dated 2016).
Where “and” joins values, the source holds several entries; their conditions need not be identical. Equal entries are not always repeated. Where two headings read alike, the source gives them in different places.

Assays:
[1] = tested on: phospholipase/lipase MPIaG
Method: Particularly, enzyme activity was measured by the following two methods. […] The second method was spectrophotometric assay as standard method of the present invention. […] The increasing rate of para-nitrophenol hydrolyzed from the substrate was continuously measured at OD405. Unless informed otherwise, p-nitrophenyl caprate (C10) was used as a substrate. 1 unit (U) of enzyme was defined as the enzyme amount capable of producing 1 μmol of para-nitrophenol via hydrolysis.

[2] = tested on: phospholipase/lipase MPIaG; assay type: biochemical, tidal flat metagenome

Compound	Enzyme activity relative value (%) ([1]; organic solvent 20%)	Enzyme activity relative value (%) ([1]; organic solvent 30%)	Enzyme activity relative value (%) ([1]; organic solvent 50%)	Enzyme activity relative value (%) ([1]; organic solvent 60%)	Enzyme activity relative value (%) ([2]; additive 1 mM)	Enzyme activity relative value (%) ([2]; additive 5 mM)	Enzyme activity relative value (%) ([2]; additive 10 mM)	other results
CC(C)=O [Acetone]	96	100	96	99				
OCCS [2-mercaptoethanol]					105	108	80	
CC#N [Acetonitrile]	100	99	98	99				
CO [Methanol]	100	101	93	98				
[Cl][Cu][Cl] [CuCl2]					135	32	11	
C[S+](C)[O-] [DMSO, dimethyl sulfoxide]	98	97	98	81				
CN(C)C=O [DMF, dimethylformamide]	99	100	93	98				
O=S(=O)(F)Cc1ccccc1 [PMSF, phenyl methyl sulfonyl fluoride]					94	107	105	
O=C(O)CN(CCN(CC(=O)O)CC(=O)O)CC(=O)O [EDTA, ethylenediaminetetraacetic acid]								effect on enzyme activities (in words) [2]: strongly inhibited
[Cl-].[Cl-].[Mg+2] [MgCl2]					105	198	142	
[Ca+2].[Cl-].[Cl-] [CaCl2]					466	1015	994	increase of enzyme activities [2]: approximately 10 times
[Cl-].[Cl-].[Co+2] [CoCl2]								Enzyme activity relative value (%) [2]: 120% and 177% and 116%
O[C@H](CS)[C@H](O)CS (racemic) [DTT, dithiothreitol]					93	107	105	
[Cl-].[Cl-].[Zn+2] [ZnCl2]					107	9	5	
[Cl][Ni][Cl] [NiCl2]					62	23	7	
CCO [Ethanol]	100	95	94	98				
CC(C)O [2-propanol]	101	97	96	99				
O=S(=O)([O-])[O-].[Fe+2] [FeSO4]					137	142	151	
